According to US9440913B2, “Dihydroxybenzene derivatives and antiprotozoal agent comprising same as active ingredient” (NAI INC., priority 2010, dated 2016):

Legend:
[1] = test system: glycerol-3-phosphate-dependent respiration; settings: mitochondrial specimen of T. brucei brucei multiplied in the rat bloodstream; cited from earlier work
T. b. rhodesiense = assay: Treatment of mice infected with T. b. rhodesiense (cure and survival); type: in vivo; settings: for Cured/Infected: i.p., five doses at 6 hour interval
Protocol: Mice were infected with T. b. rhodesiense, a protozoan that causes acute symptoms at 1×10^3 cells/mouse, administration of medication in mice was started 24 hours after the infection, and the mice received five doses of each drug at the dosing interval of 6 hours. Mice were all infected and treated intraperitoneally (i.p). Mice that have no Trypanosomatid protozoan in the blood and survive even 60 days or more after the end of treatment were determined to be cured. Survival days represents an average survival time after treatment in mice that died from infection; therefore, survival days for the group of cured mice are not described in Table 2.

SMILES: C/C=C(C)/C=C/C=C/[C@H](OC)[C@@H](C)[C@@H](OC)[C@@H](C)CCc1oc2c(O)c(OC)cc(OC)c2c(=O)c1C [stigmatellin]
- absolute amounts of 50% inhibition [1]: 18,600 pmol/mg protein

SMILES: C/C(=C\Cc1c(O)c(Cl)c(C)c(C=O)c1O)CC/C=C(\C)[C@@H]1CC(=O)C(C)(C)O1 (racemic) [Ascofuranone, dl-5-Chloro-2,4-dihydroxy-6-methyl-3-[(2E,6E)-3-methyl-7-(3,3-dimethyl-4-oxo-2-oxacyclopentyl)-2,6-octadienyl]benzaldehyde]
- absolute amounts of 50% inhibition [1]: 25 pmol/mg protein
- Survival days (T. b. rhodesiense; Glycerol dose 0, average survival time after treatment in mice that died from infection): 12 days
- Cured/Infected (T. b. rhodesiense; Glycerol dose 0, start 24 hours after infection, cured = no protozoan in blood and survival 60 days or more): 0/5
- Survival days (T. b. rhodesiense; Glycerol dose 50 mg/kg, average survival time of mice that died from infection): 12 days
- Cured/Infected (T. b. rhodesiense; Glycerol dose 50 mg/kg): 0/5
- Survival days (T. b. rhodesiense; Glycerol dose 750 mg/kg, average survival time of mice that died from infection): 21 days
- Cured/Infected (T. b. rhodesiense; Glycerol dose 750 mg/kg): 2/3
- Cured/Infected (T. b. rhodesiense; Glycerol dose 1.25 g/kg): 5/5

SMILES: CCCC[C@H]1C(=O)O[C@H](C)[C@H](NC(=O)c2cccc(NC=O)c2O)C(=O)O[C@@H](C)[C@@H]1OC(=O)CC(C)C [Antimycin A3]
- absolute amounts of 50% inhibition [1]: 48,600 pmol/mg protein

SMILES: CO/C(=C/C(N)=O)[C@H](C)[C@H](/C=C/c1csc(-c2csc([C@@H](C)/C=C/C=C/C(C)C)n2)n1)OC [myxothiazol]
- absolute amounts of 50% inhibition [1]: 21,500 pmol/mg protein
